Laboratory results taken from patent publication US4548938A, “5-H-1,3,4-thiadiazolo[3,2-a]pyrimidin-5-one compounds” (Janssen Pharmaceutica N.V., priority 1985, dated 1985).
Read-outs that look alike come from different tables or passages of the source.

Key:
[1] = system: compound 48/80-induced gastric lesions; details: rats treated with compound 48/80; known serotonin antagonists; cited from earlier work
[2] = system: apomorphine-induced phenomena: agitation and stereotypic chewing; assay: apomorphine (APO) test in rats, part of the combined APO-TRY-NOR test; assay type: in vivo, male Wistar rats; details: Rattus norvegicus, sc, 0.5 h, read-out: ED50 (APO)-rat
[3] = system: tryptamine-induced bilateral tonic seizures; assay: tryptamine (TRY) test in rats, part of the combined APO-TRY-NOR test; assay type: in vivo, male Wistar rats; details: Rattus norvegicus, sc, 1.5 h, tryptamine 40 mg/kg i.v. at 90 min
[4] = system: norepinephrine-induced mortality; assay: norepinephrine (NOR) test in rats, part of the combined APO-TRY-NOR test; assay type: in vivo, male Wistar rats; details: Rattus norvegicus, sc, 2 h, norepinephrine 1.25 mg/kg i.v. at 120 min
Experimental: THE COMBINED APOMORPHINE (APO)-, TRYPTAMINE (TRY)- AND NOREPINEPHRINE (NOR) TEST IN RATS
The experimental animals used in this test were adult male Wistar rats (weight 240±10 g). After an overnight fast, the animals were treated subcutaneously (1 ml/100 g) with an aqueous solution of the compound under investigation (time=zero) and put in isolated observation cages. […] At the end of this 1 hour period (time=90 minutes) the same animals were injected intravenously with 40 mg/kg of tryptamine (TRY) and the presence of the typical tryptamine-induced bilateral tonic seizures was noted. Two hours after pretreatment (time=120 minutes) finally, the same animals were challenged with 1.25 mg/kg intravenously of norepinephrine (NOR) and possible mortality was looked for up to 60 minutes later.
The table 1 gives the ED50 -values of a number of the compounds under consideration. As used herein, the ED50 -value represents the dose which protects 50% of the animals from apomorphine-, tryptamine- or norepinephrine-induced phenomena.

[5] = system: apomorphine-induced emesis; assay: apomorphine test in dogs (APO-dog); assay type: in vivo; details: Canis lupus familiaris, sc; beagle dogs; apomorphine 0.31 mg/kg s.c. 1 hour after compound; protection from emesis
[6] = system: compound 48/80-induced gastric lesions; assay: gastric lesion test: lesions induced by compound 48/80; assay type: in vivo; details: Rattus norvegicus, read-out: gastric lesion test ED50
[7] = system: serotonin-induced contraction of rat caudal artery; assay: antagonistic activity on the effect of serotonin on the caudal artery of the rat; details: serotonin 40 ng/ml; minimal concentration reducing contraction amplitude to at least 50% of normal; 5 min
Experimental: ANTAGONISTIC ACTIVITY ON THE EFFECT OF SEROTONIN ON THE CAUDAL ARTERY OF THE RAT
Caudal arteries from fasted male rats (210-235 g) were used in the test. Two helical strips having a length of 5-6 cm and a width of 2 mm. were obtained from each artery and mounted vertically in a 100 ml organ bath containing an oxygenated Krebs-Henseleit solution. Submaximal contractions of the arterial strips were produced by adding single doses of serotonin (40 ng/ml) to the organ bath for 2 minutes with each time an interval of 10 minutes. The amplitude of the contraction was measured before and 5 minutes after adding the drug. After washing out, the agonist was added again three times in order to see whether the contraction was restored and normalized.

[8] = system: compound 48/80-induced lethality; assay: protection of rats from compound 48/80-induced lethality; assay type: in vivo, male Wistar rats; details: Rattus norvegicus, sc, 4 h, s.c., compound 48/80 0.5 mg/kg i.v. 1 hour after treatment, 50% protected against lethality, read-out: 48/80-test ED50
Excerpt: PROTECTION OF RATS FROM COMPOUND 48/80-INDUCED LETHALITY
Compound 48/80, a mixture of oligomers obtained by condensation of 4-methoxy-N-methyl-phenethylamine and formaldehyde has been described as a potent histamine releasing agent (Int. Arch. Allergy, 13, 336 (1958)). The protection from compound 48/80-induced lethal circulatory collapse appears to be a simple way of evaluating quantitatively the antihistaminic activity of test-compounds. Male rats of an inbred Wistar strain, weighing 240-260 g were used in the experiment. After overnight starvation the rats were transferred to conditioned laboratories (temp.=21±1° C., relative humidity=65±5%). The rats were treated subcutaneously or orally with a test compound or with the solvent (NaCl solution, 0.9%). One hour after treatment there was injected intravenously compound 48/80, freshly dissolved in water, at a dose of 0.5 mg/kg (0.2 ml/100 g of body weight). In control experiments, wherein 250 solvent-treated animals were injected with the standard dose of compound 48/80 not more than 2.8% of the animals survived after 4 hours, is therefore considered to be a safe criterion of a protective effect of drug administration.
In this connection the ED50 -values are the minimal doses of the concerned compounds, administered in the subcutaneous way, whereby 50% of the rats are protected against compound 48/80-induced lethality.

[9] = s.c., rats, apomorphine 1.25 mg/kg i.v. 30 min after compound
[10] = rats, compound 48/80, distension of the stomach completely absent in 50% of rats

Row | SMILES | prevention of cyanosis of ears and extremities, lesions in the glandular area of the stomach and abnormal gastric distension [1] | ED50 [3] | ED50 [4] | ED50 [5] | caudal artery rat ED50 [7] | ED50 [8] | also measured
1 | CN1CCC(=C2c3ccccc3C=Cc3ccccc32)CC1 [cyproheptadine] | prevent completely | – | – | – | – | – | –
2 | CN(C)CCCSc1ccccc1NC(=O)/C=C/c1ccccc1 [cinanserin] | prevent completely | – | – | – | – | – | –
3 | CN1CCN2c3ccccc3Cc3ccccc3C2C1 (stereo not drawn) [mianserin] | prevent completely | – | – | – | – | – | –
4 | CN1C[C@H](CNC(=O)OCc2ccccc2)C[C@@H]2c3cccc4c3c(cn4C)C[C@H]21 [metergoline] | prevent completely | – | – | – | – | – | –
5 | Cc1nc2sccn2c(=O)c1CCN1CCC(C(=O)c2ccc(F)cc2)CC1 [compound 5, 6-[2-[4-(4-fluorobenzoyl)-1-piperidinyl]ethyl]-7-methyl-5H-thiazolo[3,2-a]pyrimidin-5-one] | – | 0.01 mg/kg | 0.63 mg/kg | 0.015 mg/kg | 0.14 ng/mL | 0.31 mg/kg | ED50 [2, 9]: 0.02 mg/kg; ED50 [6, 10]: 0.005 mg/kg
6 | O=C(CCCN1CCC2(CC1)C(=O)NCN2c1ccccc1)c1ccc(F)cc1 [spiperone] | prevent completely | – | – | – | – | – | –
7 | Cc1nc2n(c(=O)c1CCN1CCC(c3c[nH]c4ccccc34)CC1)CCCS2 [compound 3, 3,4-dihydro-7-[2-[4-(1H-indol-3-yl)-1-piperidinyl]ethyl]-8-methyl-2H,6H-pyrimido[2,1-b][1,3]thiazin-6-one] | – | 0.63 mg/kg | 1.25 mg/kg | 0.015 mg/kg | 0.32 ng/mL | 0.04 mg/kg | ED50 [2]: 0.63 mg/kg; ED50 [6, 10]: 0.02 mg/kg
8 | Cc1nc2n(c(=O)c1CCN1CCC(C(=O)c3ccc(F)cc3)CC1)CCS2 [compound 1, 6-[2-[4-(4-fluorobenzoyl)-1-piperidinyl]ethyl]-2,3-dihydro-7-methyl-5H-thiazolo[3,2-a]pyrimidin-5-one] | – | 0.16 mg/kg | 0.63 mg/kg | 0.03 mg/kg | 0.32 ng/mL | 0.63 mg/kg | ED50 [2, 9]: 0.31 mg/kg; ED50 [6, 10]: 0.0005 mg/kg
9 | Cc1nc2sc3ccccc3n2c(=O)c1CCN1CCC(C(=O)c2ccc(F)cc2)CC1 [compound 6, 3-[2-[4-(4-fluorobenzoyl)-1-piperidinyl]ethyl]-2-methyl-4H-pyrimido[2,1-b]benzothiazol-4-one] | – | 0.02 mg/kg | 0.31 mg/kg | 1.8 mg/kg | 0.14 ng/mL | 0.16 mg/kg | ED50 [2, 9]: 5 mg/kg; ED50 [6]: 0.08 mg/kg
10 | CC[C@@H](CO)NC(=O)[C@@H]1C=C2c3cccc4c3c(cn4C)C[C@H]2N(C)C1 [methysergide] | prevent completely | – | – | – | – | – | –
11 | NC(=O)C1(N2CCCCC2)CCN(CCCC(=O)c2ccc(F)cc2)CC1 [pipamperone] | prevent completely | – | – | – | – | – | –
12 | CN1CCC(=C2c3ccccc3CCc3sccc32)CC1 [pizotifen] | prevent completely | – | – | – | – | – | –
